The record followed here is US20100292200A1, “Methods for Modulating Apoptosis in Platelets” (The Walter and Eliza Hall Institute of Medical Research, priority 2006, published 2010).

Each structure is given as a SMILES string.

For data set [1], the system named is primary MEFs from wild type, Bcl-x^Plt20/Plt20 or Bcl-x^Plt16/Plt16 mice. Put plainly: Viability of primary MEFs (PI exclusion) after cell death induction. It counts as cell-based, mouse. From the text:
FIG. 3 provides a representation of data showing that the Bcl-x^Plt20 and Bcl-x^Plt16 mutations destabilize the Bcl-xL protein (A) Location of the Plt20 and Plt16 mutations on Bcl-xL. The two mutations (in blue) are mapped on the 3-dimensional structure of mouse Bcl-xL (light gray) in complex with a Bim BH3 peptide (red) (1PQ1) (Liu et al. Immunity, 19:341-352, 2003). Y15 (Plt20) is partially solvent exposed, while I182 (Plt16) is completely buried, neither contributing to the BH3 binding groove of Bcl-xL. The structural depiction was prepared using PyMOL (DeLano, W. L. 2002 The PyMOL Molecular Graphics System; http://www.pymol.org). (B) The mutant proteins encoded by the Plt20 and Plt16 alleles of Bcl-x can still bind Bax and Bak. […] Data shown is representative of at least 2 cell lines of each genotype analyzed. […] The viability (determined by PI exclusion) of representative primary MEFs derived from wild type, Bcl-x^Plt20/Plt20 or Bcl-x^Plt16/Plt16 mice after exposure to 50 μg/mL cycloheximide for 0-30 h. […]
FIG. 8 is a graphical representation of data showing the sensitivity of cell lines derived from Bcl-x mutant mice to apoptosis. […] Viability was determined by PI uptake; data represent means±SD of representative cell lines. \-<1% viability. […]

In a further data set the test system is mouse platelets. Briefly: Ex vivo platelet assays, mouse platelets in culture (platelet counts, caspase immunoblotting). The data set is classed as cell-based. The following applies: qVD.OPh 50 μM with ABT-737 1 μM. The procedure: (A) Expression of Bcl-2 family proteins in platelets. […] (C) ABT-737 triggers caspase activation in platelets. […] (F) Absence of Bak protects platelets against ABT-737.
Cell death was induced with ABT-737 (up to 5 μM, Abbott Laboratories (Oltersdorf et al., 2005 (supra)), etoposide (up to 100 μM, Pharmacia) or staurosporine (10 μM, Sigma); 50 μM qVD.OPh (Enzyme Systems) was also added in some experiments. Cell viability was determined by flow cytometry for cells that exclude propidium iodide or manual counting using a hemacytometer.
Other antibodies for immunoblotting were mouse monoclonal anti-Bcl-xL (2H12; BD), anti-Bcl-2 (clone 7; BD), anti-human Bcl-2 (Bcl-2-100), anti-actin (AC40; Sigma), anti-Bax (2D2 and 5B7; Sigma), anti-Mcl-1 (clone 22: BD); rat monoclonal anti-Mcl-1 (14C11; D Huang, unpublished), rabbit polyclonal anti-Bak (B5897: Sigma), anti-Mcl-1 (Rockland), anti-caspase-3 (585; gift of Y. Lazebnik), anti-cleaved p17 fragment of caspase-3 (AB3623; Chemicon), anti-gelsolin (gift of D Kwiatkowski) (Kothakota et al., Science, 278:294-298, 1997); hamster monoclonal anti-mouse Bcl-2 (3F11; BD). Secondary antibodies included HRP-conjugated anti-rat or anti-hamster IgG (SouthernBiotech), anti-mouse or anti-rabbit IgG (Chemicon), and anti-mouse IgG Fcγ chain specific antibody (Jackson ImmunoResearch). The proteins were detected using Enhanced ChemiLuminescence (ECL; GE Healthcare).
Platelets were counted manually in triplicate using a hemacytometer.

The next data set deals with Mcl-1 null MEF cells. Put plainly: Assay of Mcl-1 null MEF cells (rescue from ABT-737-induced killing, CellTitre-Blue viability). It counts as cell-based, mouse. The following applies: positive control, 25 μM final; ABT-737 20 nM final. The procedure: In summary, cells are split on day one in order to have them at a confluency of 60-80% on day two. On day two, the cells are seeded out into assay plates at a density that will ensure they are not confluent by day four of the assay. The assay plates are incubated at room temperature for 20-60 minutes before being transferred to 37° C. so that edge effects are minimized. For the same reason, assay plates are never stacked on top of each other in the incubator. On day three the cells are treated first with either Q-VD or with WEHI library compound. The cells are incubated for a 2 hour period in the presence of the library compounds and are then treated with ABT-737. […] After four hours the level of resorufin is measured.
The protocol for day one was repeated up to the point where the cells were pelleted and the supernatant aspirated off. […] The cells were vortexed and then counted using a haemocytometer. The dilution necessary to achieve a density of 2×10^4 cells ml^−1 (1000 cells per well per 50 μl media) in the required volume was calculated and the dilution performed in 1% FCS FMA. […]
CellTitre-Blue™ was warmed to 37° C. and 10 μl was then added to each well of the assay plates using the Multidrop. The plates were returned to 37° C. for 4 hours before being loaded into the EnVision plate reader. […]

In the case of `C[C@@H]1C[C@@H]([C@H](O)CC2CC(=O)NC(=O)C2)C(=O)[C@@H](C)C1` [cycloheximide], the “viability of Bcl-x^Plt20 or Bcl-x^Plt16 MEFs after protein synthesis inhibition” value in data set [1] (50 μg/mL cycloheximide for 0-30 h, PI exclusion) is recorded as “susceptible”.

Regarding `CN[C@@H]1C[C@H]2O[C@@](C)([C@@H]1OC)n1c3ccccc3c3c4c(c5c6ccccc6n2c5c31)C(=O)NC4` [staurosporine], the “sensitivity of wild-type, Bcl-x^Plt20/Plt20 or Bcl-x^Plt16/Plt16 MEFs to staurosporine” value in data set [1] (staurosporine 10 μM, PI uptake) is given as “equally sensitive”.

Consider `CC(C)[C@H](NC(=O)c1ccc2ccccc2n1)C(=O)N[C@@H](CC(=O)O)C(=O)COc1c(F)cccc1F` [qVD.OPh], for which the “effect of qVD.OPh on ABT-737-induced caspase-3 activation and gelsolin cleavage” value in the data set with mouse platelets is “partially blocked”. Also, the “effect of qVD.OPh on the cytotoxic effect of ABT-737 on mouse platelets in culture” value in the data set with mouse platelets (counted after 1 h) is on record as “partially ameliorated”. Moreover, the “rescue of Mcl-1^(-/-) cells from ABT-737-induced apoptosis” value with Mcl-1 null MEF cells is recorded as “can be rescued”.
